Experimental findings from ChEMBL document CHEMBL1649321, “Plasmid-mediated resistance to cephalosporins in Salmonella enterica serovar Typhi” (2010) are described below.

Test [1] has as its system Salmonella typhi. In words: Antimicrobial activity against Salmonella enterica serovar Typhi isolate 080049Ty by broth microdilution method. The format is functional, Salmonella enterica subsp. enterica serovar Typhi. On the technique in general: In broth dilution the organism is exposed to a series of concentrations in liquid medium.
Test [2] concerns Salmonella typhi. Kind of test: Antimicrobial activity against Salmonella enterica serovar Typhi isolate 080048Ty by broth microdilution method. The class given is functional, Salmonella enterica subsp. enterica serovar Typhi.
Test [3] has as its system Escherichia coli. In words: Antimicrobial activity against Escherichia coli W3110 transformant harboring bla CTX-M-15 gene by broth microdilution method. The class given is functional.
In test [4] the test system is Salmonella typhi. In words: Antimicrobial activity against Salmonella enterica serovar Typhi isolate 080048Ty transconjugant harboring bla CTX-M-15 gene by broth microdilution method. The format is functional, Salmonella enterica subsp. enterica serovar Typhi.
In test [5] the test system is Salmonella typhi. In words: Antimicrobial activity against Salmonella enterica serovar Typhi isolate 080049Ty by broth microdilution method in presence of beta-lactamase inhibitor clavulanic acid. The format is functional, Salmonella enterica subsp. enterica serovar Typhi.
The subject of test [6] is Salmonella typhi. Kind of test: Antimicrobial activity against Salmonella enterica serovar Typhi isolate 080048Ty by broth microdilution method in presence of beta-lactamase inhibitor clavulanic acid. The class given is functional, Salmonella enterica subsp. enterica serovar Typhi.
Test [7] concerns Escherichia coli. Kind of test: Antimicrobial activity against Escherichia coli W3110 transformant harboring bla CTX-M-15 gene by broth microdilution method in presence of beta-lactamase inhibitor clavulanic acid. The class given is functional.
Test [8] concerns Salmonella typhi. Kind of test: Antimicrobial activity against Salmonella enterica serovar Typhi isolate 080048Ty transconjugant harboring bla CTX-M-15 gene by broth microdilution method in presence of beta-lactamase inhibitor clavulanic acid. The format is functional, Salmonella enterica subsp. enterica serovar Typhi.

Converted amounts (≈) assume the structure as drawn.

As a reminder, the MIC is the lowest concentration that inhibits growth of the organism. Turning to `CC(C)(O/N=C(\C(=O)N[C@@H]1C(=O)N2C(C(=O)[O-])=C(C[n+]3ccccc3)CS[C@H]12)c1csc(N)n1)C(=O)O` [CEFTAZIDIME], the MIC worked out at 64 µg/mL (≈ 117 µM) in the test with Salmonella typhi [1]; 1 µg/mL (≈ 1.83 µM) in the test with Salmonella typhi [2]; 64 µg/mL (≈ 117 µM) against Escherichia coli [3]; 64 µg/mL (≈ 117 µM) in the test on Salmonella typhi [4]; 0.25 µg/mL in the test with Salmonella typhi [5]; 0.25 µg/mL in the test with Salmonella typhi [6]. The MIC in the test on Escherichia coli [7] and with Salmonella typhi [8] was 0.25 µg/mL throughout.
As for `CO/N=C(\C(=O)N[C@@H]1C(=O)N2C(C(=O)O)=C(COC(C)=O)CS[C@H]12)c1csc(N)n1` [CEFOTAXIME], the MIC with Salmonella typhi [1] is > 128 µg/mL; against Salmonella typhi [2], 0.125 µg/mL (≈ 0.274 µM); in the test with Escherichia coli [3], > 128 µg/mL; against Salmonella typhi [4] it was > 128 µg/mL; with Salmonella typhi [5], < 0.125 µg/mL; in the test with Salmonella typhi [6], < 0.125 µg/mL. Moreover, the MIC with Escherichia coli [7] and in the test on Salmonella typhi [8] was < 0.125 µg/mL throughout.
Take `CO/N=C(\C(=O)N[C@@H]1C(=O)N2C(C(=O)O)=C(CSc3nc(=O)c(O)nn3C)CS[C@H]12)c1csc(N)n1` [CEFTRIAXONE]: the MIC with Salmonella typhi [1] is > 128 µg/mL; against Salmonella typhi [2], 0.125 µg/mL (≈ 0.225 µM); in the test with Escherichia coli [3], > 128 µg/mL; against Salmonella typhi [4], > 128 µg/mL.
Turning to `CC1(C)S[C@@H]2[C@H](NC(=O)[C@H](N)c3ccccc3)C(=O)N2[C@H]1C(=O)O` [AMPICILLIN], the MIC against Salmonella typhi [1] was > 64 µg/mL; in the test on Salmonella typhi [2], < 2 µg/mL; in the test with Escherichia coli [3], > 64 µg/mL; against Salmonella typhi [4] it was > 64 µg/mL.
Regarding `CCn1cc(C(=O)O)c(=O)c2ccc(C)nc21` [NALIDIXIC ACID], the MIC in the test with Salmonella typhi [1] was > 64 µg/mL; in the test with Salmonella typhi [2], > 64 µg/mL; in the test with Escherichia coli [3] it was 32 µg/mL (≈ 138 µM); in the test on Salmonella typhi [4] it was > 64 µg/mL.
